How the values were obtained:
SCLC strain SHP-77 = test: Colorimetric tetrazolium (MTT) assay for cell survival, SCLC strain SHP-77; assay type: cell-based, human; details: SCLC strain SHP-77 in vitro
Procedure: In general, Anti-bradykinin activity was determined by the classical guinea pig ileum assay and on Chinese hamster ovary (CHO) cells expressing cloned human bradykinin B2 receptors. Anti-tumor activity was determined on cultured human cancer cell lines using the standard tetrazolium (MTT) assay.
Cell growth and survival were measured by a rapid colorimetric assay based on the tetrazolium salt MTT (3-(4,5-dimethylthiazol-2-yl)-2,5-diphenyl tetrazolium bromide) (Mosmann, J Immunol. Methods 65: 55–63, 1983, with minor modifications). Briefly, 1,000 normal lung fibroblasts or normal epithelial BEAS-2B cells, 1,000 or 5,000 viable non-SCLC cells or 10,000 viable SCLC cells were plated in 100 μL of growth medium in 96-well flat-bottomed microtiter plates. Cells were incubated overnight to allow recovery. Compounds to be tested were added to the cells in triplicate in a range of concentrations and the cells were incubated at 37° C., 5% CO2, with 100% humidity. Control cells were treated in the same way without antagonists. […] Plates were incubated for 4 days, allowing sufficient time for cell replication and compound-induced cell death to occur. On day 5, 25 μL of a 2 mg/mL solution of MTT (Sigma) dissolved in RMPI-1640was added to each well. The plate was incubated for 4 h at 37° C. The supernate was removed and the blue formazan complex was dissolved by adding 100 μL of 0.02 N HCl in 75% isopropanol to all wells. Absorbance was immediately determined using a scanning multiwell plate reader. B9870 caused 50% cell death at a concentration of 0.15 μM under these conditions.

[1] = system: bradykinin response of isolated guinea pig ileum; test: Anti-bradykinin activity on isolated guinea pig ileum; details: isolated guinea pig ileum; pD2 of bradykinin is 7.4; higher numbers indicate higher potency
How it was run: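 Terminal ileum segments (25 mm) from overnight-fasted male Hartley guinea pigs, in Krebs' solution gassed with 95% O2/5% CO2 under 1 g tension, equilibrated 1 h. Bradykinin concentration-effect curves constructed without and with test compounds.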

**Q.** With `CC1(C)CC(NC(=O)[C@H](Cc2ccc3ccccc3c2)NC(=O)C(c2ccccc2)c2ccccc2)CC(C)(C)N1` [M272] as the molecule, how does the “MTT: ED50 for killing of SCLC strain SHP-77 in vitro” value (“MTT: ED50 for killing” below) (SCLC strain SHP-77) read?
**A.** 9 µM

**Q.** What about the “GPI: pA2 for bradykinin antagonist activity on isolated guinea pig ileum” value (shortened to “GPI: pA2”) [1] of the same molecule?
**A.** 5.2

**Q.** How did the “MTT: ED50 for killing” value (SCLC strain SHP-77) turn out when `COc1cc(C=CC(=O)N[C@@H](Cc2ccc3ccccc3c2)C(=O)NC2CC(C)(C)NC(C)(C)C2)cc(OC)c1O` [M274] was run?
**A.** 36 µM

**Q.** What about the “GPI: pA2” value [1] of the same molecule?
**A.** 4.7

**Q.** With `CC1(C)CC(NC(=O)[C@H](Cc2ccc3ccccc3c2)NC(=O)C(C2CCCCC2)C2CCCCC2)CC(C)(C)N1` [M276] as the molecule, how does the “MTT: ED50 for killing” value (SCLC strain SHP-77) read?
**A.** 4.6 µM

**Q.** And the “GPI: pA2” value [1]?
**A.** 5.3

**Q.** Which results are given for `CC1(C)CC(NC(=O)[C@@H](NC(=N)CCCCCCCCCCCCC(=N)N[C@H](C(=O)NC2CC(C)(C)NC(C)(C)C2)C2Cc3ccccc3C2)C2Cc3ccccc3C2)CC(C)(C)N1` [M280]?
**A.** MTT: ED50 for killing of SCLC strain SHP-77 in vitro (SCLC strain SHP-77): 6 µM; GPI: pA2 for bradykinin antagonist activity on isolated guinea pig ileum [1]: 5.2

**Q.** `CC1(C)CC(NC(=O)C(Cc2ccc3ccccc3c2)NC(=O)CCSSCCC(=O)NC(Cc2ccc3ccccc3c2)C(=O)NC2CC(C)(C)NC(C)(C)C2)CC(C)(C)N1` (stereo not drawn) [M286] was tested. Which “MTT: ED50 for killing” value (SCLC strain SHP-77) did it give?
**A.** 24 µM

**Q.** What about the “GPI: pA2” value [1] of the same molecule?
**A.** 5.1

**Q.** `CC1(C)CC(NC(=O)C(Cc2ccc3ccccc3c2)NC(=O)OC(C)(C)C)CC(C)(C)N1` (stereo not drawn) [M288A] was tested. Which “MTT: ED50 for killing” value (SCLC strain SHP-77) did it give?
**A.** >85 µM

**Q.** And the “GPI: pA2” value [1]?
**A.** 5.2

**Q.** `CC1(C)CC(NC(=O)C(Cc2ccc3ccccc3c2)NC(=O)OC(C)(C)C)CC(C)(C)N1` (stereo not drawn) [M288] was tested. Which “MTT: ED50 for killing” value (SCLC strain SHP-77) did it give?
**A.** Inact

**Q.** And the “GPI: pA2” value [1]?
**A.** 5.2

**Q.** How did the “MTT: ED50 for killing” value (SCLC strain SHP-77) turn out when `CC1(C)CC(NC(=O)C(Cc2ccc3ccccc3c2)NC(=O)c2nc(Cl)c(Cl)c(N)c2Cl)CC(C)(C)N1` (stereo not drawn) [M302] was run?
**A.** 3.5 µM

**Q.** And the “GPI: pA2” value [1]?
**A.** 5.2

**Q.** For `CC1CN(C(=O)[C@H](Cc2ccc3ccccc3c2)NC(=N)CCCCCCCCCCCCC(=N)N[C@@H](Cc2ccc3ccccc3c2)C(=O)N2CC(C)OC(C)C2)CC(C)O1` (stereo partly drawn) [M304], which “MTT: ED50 for killing” value (SCLC strain SHP-77) is on record?
**A.** 4.2 µM

**Q.** And the “GPI: pA2” value [1]?
**A.** 5.9

**Q.** `CC1(C)CC(NC(=O)C(Cc2ccc3ccccc3c2)NC(=O)C=Cc2ccc(N)cc2)CC(C)(C)N1` (stereo not drawn) [M308] was tested. Which “MTT: ED50 for killing” value (SCLC strain SHP-77) did it give?
**A.** >75 µM

**Q.** And the “GPI: pA2” value [1]?
**A.** 5.0

**Q.** With `CC1(C)CC(NC(=O)C(Cc2ccc3ccccc3c2)NC(=O)C=Cc2ccc(C(F)(F)F)cc2)CC(C)(C)N1` (stereo not drawn) [M312] as the molecule, how does the “MTT: ED50 for killing” value (SCLC strain SHP-77) read?
**A.** 3.2 µM

**Q.** And the “GPI: pA2” value [1]?
**A.** 5.5

**Q.** For `Cc1cc(NC(=O)C(Cc2ccc3ccccc3c2)NC(=O)C=Cc2c(F)c(F)c(F)c(F)c2F)c2ccccc2n1` (stereo not drawn) [M314], which “MTT: ED50 for killing” value (SCLC strain SHP-77) is on record?
**A.** 25 µM

**Q.** And the “GPI: pA2” value [1]?
**A.** 4.6

**Q.** For `CC1(C)CC(NC(=O)C(Cc2ccc(OCc3ccccc3)cc2)NC(=O)C=Cc2c(F)c(F)c(F)c(F)c2F)CC(C)(C)N1` (stereo not drawn) [M318], which “MTT: ED50 for killing” value (SCLC strain SHP-77) is on record?
**A.** 3.6 µM

**Q.** What about the “GPI: pA2” value [1] of the same molecule?
**A.** 5.1

**Q.** How did the “MTT: ED50 for killing” value (SCLC strain SHP-77) turn out when `CN(C)c1ccc(C=CC(=O)NC(Cc2ccc3ccccc3c2)C(=O)NC2CC(C)(C)NC(C)(C)C2)cc1` (stereo not drawn) [M324] was run?
**A.** 3 µM

**Q.** What about the “GPI: pA2” value [1] of the same molecule?
**A.** 5.2

**Q.** For `CC1(C)CC(NC(=O)[C@H](Cc2csc3ccccc23)NC(=N)CCCCCCCCCCCCC(=N)N[C@@H](Cc2csc3ccccc23)C(=O)NC2CC(C)(C)NC(C)(C)C2)CC(C)(C)N1` [M436-2], which “MTT: ED50 for killing” value (SCLC strain SHP-77) is on record?
**A.** 4.5 µM

**Q.** And the “GPI: pA2” value [1]?
**A.** 5.8

**Q.** What does the source list for `CN(C)c1ccc(C=CC(=O)NC(Cc2csc3ccccc23)C(=O)NC2CC(C)(C)NC(C)(C)C2)cc1` (stereo not drawn) [M448]?
**A.** MTT: ED50 for killing of SCLC strain SHP-77 in vitro (SCLC strain SHP-77): 2.7 µM; GPI: pA2 for bradykinin antagonist activity on isolated guinea pig ileum [1]: 5.7

**Q.** `CN1CCN(NC(=O)[C@H](Cc2ccc3ccccc3c2)NC(=O)C=Cc2ccc(NC(=O)CCCCCCCCCCC(=O)O)cc2)CC1` [M480-1] was tested. Which “MTT: ED50 for killing” value (SCLC strain SHP-77) did it give?
**A.** 45 µM

**Q.** And the “GPI: pA2” value [1]?
**A.** 5.1

**Q.** `COC(=O)CCCCCCCCC(=O)Nc1ccc(C=CC(=O)NC(Cc2csc3ccccc23)C(=O)NC2CC(C)(C)NC(C)(C)C2)cc1` (stereo not drawn) [M506] was tested. Which “MTT: ED50 for killing” value (SCLC strain SHP-77) did it give?
**A.** 11 µM

**Q.** And the “GPI: pA2” value [1]?
**A.** 4.9

Reference: patent US7071168B2, “Anti-cancer compounds and methods related thereto” (The Regents of the University of Colorado, priority 1998, dated 2006)
